The results in this text go back to US10695337B2, “Piperidin-4-yl azetidine derivatives as JAK1 inhibitors” (Incyte Corporation, priority 2010, dated 2020).

The assay deals with human JAK1 (a.a. 837-1142). Briefly: In vitro JAK kinase assay (HTRF, phosphorylation of a biotinylated peptide), JAK1. The settings on record: measured at 1 mM ATP; JAK2 IC50 / JAK1 IC50. In kind it is biochemical. Here is the method: Compounds herein were tested for inhibitory activity of JAK targets according to the following in vitro assay described in Park et al., Analytical Biochemistry 1999, 269, 94-104. The catalytic domains of human JAK1 (a.a. 837-1142), Jak2 (a.a. 828-1132) and Jak3 (a.a. 781-1124) with an N-terminal His tag were expressed using baculovirus in insect cells and purified. The catalytic activity of JAK1, JAK2 or JAK3 was assayed by measuring the phosphorylation of a biotinylated peptide. The phosphorylated peptide was detected by homogenous time resolved fluorescence (HTRF). […] Reactions were carried out at room temperature for 1 hr and then stopped with 20 μL 45 mM EDTA, 300 nM SA-APC, 6 nM Eu-Py20 in assay buffer (Perkin Elmer, Boston, Mass.). Binding to the Europium labeled antibody took place for 40 minutes and HTRF signal was measured on a Fusion plate reader (Perkin Elmer, Boston, Mass.).
`CN(C)c1ccc(C(=O)N2CCC(N3CC(CC#N)(n4cc(-c5ncnc6[nH]ccc56)cn4)C3)CC2)cc1C#N` [Example 59, 5-[(4-{3-(cyanomethyl)-3-[4-(7H-pyrrolo[2,3-d]pyrimidin-4-yl)-1H-pyrazol-1-yl]azetidin-1-yl}piperidin-1yl)carbonyl]-2-(dimethylamino)benzonitrile]: the “IC50 Ratio JAK2/JAK1” value came out at 4.6.

Take `CN(C)c1c(F)c(F)c(C(=O)N2CCC(N3CC(CC#N)(n4cc(-c5ncnc6[nH]ccc56)cn4)C3)CC2)c(F)c1F` [Example 60, {1-{1-[4-(dimethylamino)-2,3,5,6-tetrafluorobenzoyl]piperidin-4-yl}-3-[4-(7H-pyrrolo[2,3-d]pyrimidin-4-yl)-1H-pyrazol-1-yl]azetidin-3-yl}acetonitrile]: the “IC50 Ratio JAK2/JAK1” value worked out at 1.8.

With `N#CCC1(n2cc(-c3ncnc4[nH]ccc34)cn2)CN(C2CCN(C(=O)c3c(F)cncc3F)CC2)C1` [Example 61, {1-[1-(3,5-difluoroisonicotinoyl)piperidin-4-yl]-3-[4-(7H-pyrrolo[2,3-d]pyrimidin-4-yl)-1H-pyrazol-1-yl]azetidin-3-yl}acetonitrile], the “IC50 Ratio JAK2/JAK1” value was 4.2.

Turning to `N#CCC1(n2cc(-c3ncnc4[nH]ccc34)cn2)CN(C2CCN(C(=O)c3ccccc3F)CC2)C1` [Example 67, {1-[1-(2-fluorobenzoyl)piperidin-4-yl]-3-[4-(7H-pyrrolo[2,3-d]pyrimidin-4-yl)-1H-pyrazol-1-yl]azetidin-3-yl}acetonitrile], the “IC50 Ratio JAK2/JAK1” value was 4.7.

Turning to `N#CCC1(n2cc(-c3ncnc4[nH]ccc34)cn2)CN(C2CCN(C(=O)c3sc(C(F)(F)F)cc3O)CC2)C1` [Example 71, {1-{1-[3-hydroxy-5-(trifluoromethyl)-2-thienylcarbonyl]piperidin-4-yl}-3-[4-(7H-pyrrolo[2,3-d]pyrimidin-4-yl)-1H-pyrazol-1-yl]azetidin-3-yl}acetonitrile], the “IC50 Ratio JAK2/JAK1” value is listed as 4.4.

With `COc1cscc1C(=O)N1CCC(N2CC(CC#N)(n3cc(-c4ncnc5[nH]ccc45)cn3)C2)CC1` [Example 72, {1-{1-[(4-methoxy-3-thienyl)carbonyl]piperidin-4-yl}-3-[4-(7H-pyrrolo[2,3-d]pyrimidin-4-yl)-1H-pyrazol-1-yl]azetidin-3-yl} acetonitrile], the “IC50 Ratio JAK2/JAK1” value was 6.6.

As for `Cc1cc(C(=O)N2CCC(N3CC(CC#N)(n4cc(-c5ncnc6[nH]ccc56)cn4)C3)CC2)cs1` [Example 73, {1-{1-[(5-methyl-3-thienyl)carbonyl]piperidin-4-yl}-3-[4-(7H-pyrrolo[2,3-d]pyrimidin-4-yl)-1H-pyrazol-1-yl]azetidin-3-yl} acetonitrile], the “IC50 Ratio JAK2/JAK1” value worked out at 4.2.

As to `COc1c(C(=O)N2CCC(N3CC(CC#N)(n4cc(-c5ncnc6[nH]ccc56)cn4)C3)CC2)csc1Cl` [Example 74, {1-{1-[(5-chloro-4-methoxy-3-thienyl)carbonyl]piperidin-4-yl}-3-[4-(7H-pyrrolo[2,3-d]pyrimidin-4-yl)-1H-pyrazol-1-yl]azetidin-3-yl} acetonitrile], the “IC50 Ratio JAK2/JAK1” value was 3.8.

On to `N#CCC1(n2cc(-c3ncnc4[nH]ccc34)cn2)CN(C2CCN(C(=O)c3ccsc3Br)CC2)C1` [Example 75, {1-{1-[(2-bromo-3-thienyl)carbonyl]piperidin-4-yl}-3-[4-(7H-pyrrolo[2,3-d]pyrimidin-4-yl)-1H-pyrazol-1-yl]azetidin-3-yl}acetonitrile], for which the “IC50 Ratio JAK2/JAK1” value was 3.4.

As for `N#CCC1(n2cc(-c3ncnc4[nH]ccc34)cn2)CN(C2CCN(C(=O)c3sccc3Cl)CC2)C1` [Example 76, {1-{1-[(3-chloro-2-thienyl)carbonyl]piperidin-4-yl}-3-[4-(7H-pyrrolo[2,3-d]pyrimidin-4-yl)-1H-pyrazol-1-yl]azctidin-3-yl}acetonitrile], the “IC50 Ratio JAK2/JAK1” value is on record as 5.5.

Regarding `N#CCC1(n2cc(-c3ncnc4[nH]ccc34)cn2)CN(C2CCN(C(=O)c3ccc(Cl)s3)CC2)C1` [Example 77, {1-{1-[(5-chloro-2-thienyl)carbonyl]piperidin-4-yl}-3-[4-(7H-pyrrolo[2,3-d]pyrimidin-4-yl)-1H-pyrazol-1-yl]azetidin-3-yl}acetonitrile], the “IC50 Ratio JAK2/JAK1” value is 5.5.

Turning to `Cc1ccsc1C(=O)N1CCC(N2CC(CC#N)(n3cc(-c4ncnc5[nH]ccc45)cn3)C2)CC1` [Example 78, {1-{1-[(3-methyl-2-thienyl)carbonyl]piperidin-4-yl}-3-[4-(7H-pyrrolo[2,3-d]pyrimidin-4-yl)-1H-pyrazol-1-yl]azetidin-3-yl}acetonitrile], the “IC50 Ratio JAK2/JAK1” value stood at 5.4.

Consider `Cc1ccc(C(=O)N2CCC(N3CC(CC#N)(n4cc(-c5ncnc6[nH]ccc56)cn4)C3)CC2)s1` [Example 80, {1-{1-[(5-methyl-2-thienyl)carbonyl]piperidin-4-yl}-3-[4-(7H-pyrrolo[2,3-d]pyrimidin-4-yl)-1H-pyrazol-1-yl]azetidin-3-yl}acetonitrile], for which the “IC50 Ratio JAK2/JAK1” value was determined as 4.1.

`COc1ccsc1C(=O)N1CCC(N2CC(CC#N)(n3cc(-c4ncnc5[nH]ccc45)cn3)C2)CC1` [Example 81, {1-{1-[(3-methoxy-2-thienyl)carbonyl]piperidin-4-yl}-3-[4-(7H-pyrrolo[2,3-d]pyrimidin-4-yl)-1H-pyrazol-1-yl]azetidin-3-yl}acetonitrile]: the “IC50 Ratio JAK2/JAK1” value is given as 4.2.

In the case of `N#CCC1(n2cc(-c3ncnc4[nH]ccc34)cn2)CN(C2CCN(C(=O)c3ccc(C(F)(F)F)cc3F)CC2)C1` [Example 82, {1-{1-[2-fluoro-4-(trifluoromethyl)benzoyl]piperidin-4-yl}-3-[4-(7H-pyrrolo[2,3-d]pyrimidin-4-yl)-1H-pyrazol-1-yl]azetidin-3-yl} acetonitrile], the “IC50 Ratio JAK2/JAK1” value came to 5.3.

Consider `N#CCC1(n2cc(-c3ncnc4[nH]ccc34)cn2)CN(C2CCN(C(=O)c3c(F)cc(C#N)cc3F)CC2)C1` [Example 83, 4-[(4-{3-(cyanomethyl)-3-[4-(7H-pyrrolo[2,3-d]pyrimidin-4-yl)-1H-pyrazol-1-yl]azetidin-1-yl}piperidin-1-yl)carbonyl]-3,5-difluorobenzonitrile], for which the “IC50 Ratio JAK2/JAK1” value turned out to be 5.8.

For `N#CCC1(n2cc(-c3ncnc4[nH]ccc34)cn2)CN(C2CCN(C(=O)c3ccc(O)c(Cl)c3)CC2)C1` [Example 84, {1-[1-(3-chloro-4-hydroxybenzoyl)piperidin-4-yl]-3-[4-(7H-pyrrolo[2,3-d]pyrimidin-4-yl)-1H-pyrazol-1-yl]azetidin-3-yl}acetonitrile], the “IC50 Ratio JAK2/JAK1” value was found to be 6.5.

For `N#CCC1(n2cc(-c3ncnc4[nH]ccc34)cn2)CN(C2CCN(C(=O)c3cccc4ccccc34)CC2)C1` [Example 87, {1-[1-(1-naphthoyl)piperidin-4-yl]-3-[4-(7H-pyrrolo[2,3-d]pyrimidin-4-yl)-1H-pyrazol-1-yl]azetidin-3-yl}acetonitrile], the “IC50 Ratio JAK2/JAK1” value came out at 0.3.

In the case of `N#CCC1(n2cc(-c3ncnc4[nH]ccc34)cn2)CN(C2CCN(C(=O)c3cnc4ccccc4c3)CC2)C1` [Example 88, {3-[4-(7H-pyrrolo[2,3-d]pyrimidin-4-yl)-1H-pyrazol-1-yl]-1-[1-(quinolin-3-ylcarbonyl)piperidin-4-yl]azetidin-3-yl}acetonitrile], the “IC50 Ratio JAK2/JAK1” value was determined as 0.9.

As to `N#CCC1(n2cc(-c3ncnc4[nH]ccc34)cn2)CN(C2CCN(C(=O)c3ccc4ncccc4c3)CC2)C1` [Example 89, {3-[4-(7H-pyrrolo[2,3-d]pyrimidin-4-yl)-1H-pyrazol-1-yl]-1-[1-(quinolin-6-ylcarbonyl)piperidin-4-yl]azetidin-3-yl}acetonitrile], the “IC50 Ratio JAK2/JAK1” value amounted to 2.6.

On to `N#CCC1(n2cc(-c3ncnc4[nH]ccc34)cn2)CN(C2CCN(C(=O)c3cc4ccccc4s3)CC2)C1` [Example 90, {1-[1-(1-benzothien-2-ylcarbonyl)piperidin-4-yl]-3-[4-(7H-pyrrolo[2,3-d]pyrimidin-4-yl)-1H-pyrazol-1-yl]azetidin-3-yl}acetonitrile], for which the “IC50 Ratio JAK2/JAK1” value worked out at 1.5.

Turning to `N#CCC1(n2cc(-c3ncnc4[nH]ccc34)cn2)CN(C2CCN(C(=O)c3sc4cc(F)ccc4c3Cl)CC2)C1` [Example 91, {1-{1-[(3-chloro-6-fluoro-1-benzothien-2-yl)carbonyl]piperidin-4-yl}-3-[4-(7H-pyrrolo[2,3-d]pyrimidin-4-yl)-1H-pyrazol-1-yl]azetidin-3-yl}acetonitrile], the “IC50 Ratio JAK2/JAK1” value was 1.7.

On to `N#CCC1(n2cc(-c3ncnc4[nH]ccc34)cn2)CN(C2CCN(C(=O)c3sc4cccc(F)c4c3Cl)CC2)C1` [Example 92, {1-{1-[(3-chloro-4-fluoro-1-benzothien-2-yl)carbonyl]piperidin-4-yl}-3-[4-(7H-pyrrolo[2,3-d]pyrimidin-4-yl)-1H-pyrazol-1-yl]azetidin-3-yl}acetonitrile], for which the “IC50 Ratio JAK2/JAK1” value was determined as 2.8.

`N#CCC1(n2cc(-c3ncnc4[nH]ccc34)cn2)CN(C2CCN(C(=O)c3cc4c(C(F)(F)F)cccc4s3)CC2)C1` [Example 93, [3-[4-(7H-pyrrolo[2,3-d]pyrimidin-4-yl)-1H-pyrazol-1-yl]-1-(1-{[4-(trifluoromethyl)-1-benzothien-2-yl]carbonyl}piperidin-4-yl)azetidin-3-yl]acetonitrile]: the “IC50 Ratio JAK2/JAK1” value is on record as 1.5.

Take `N#CCC1(n2cc(-c3ncnc4[nH]ccc34)cn2)CN(C2CCN(C(=O)c3cc4ccc(C(F)(F)F)cc4s3)CC2)C1` [Example 94, [3-[4-(7H-pyrrolo[2,3-d]pyrimidin-4-yl)-1H-pyrazol-1-yl]-1-(1-{[6-(trifluoromethyl)-1-benzothien-2-yl]carbonyl}piperidin-4-yl)azetidin-3-yl]acetonitrile]: the “IC50 Ratio JAK2/JAK1” value stood at 1.0.
